Experimental data published in DBAASP.
Values after ≈ are worked out from the molar mass of the structure shown. Values joined by “and” are separate entries in the source; they are usually repeats but may differ in a detail not shown here. Identical values can stand only once. One block for each compound: values may come before it.

Legend:
Assay in all cases: ≥ marks a high value that may be exact or a test limit, other limits are often not marked, values filed in µg/mL are converted to µM
Botrytis cinerea = system: Botrytis cinerea
Escherichia coli SBS 363 = system: Escherichia coli SBS 363
Fusarium oxysporum = system: Fusarium oxysporum
[1] = system: Micrococcus luteus CIP 5345
[2] = system: Bacillus subtilis IFO 3513
[3] = system: Escherichia coli IFO 12734
[4] = system: Staphylococcus aureus IFO 12732
[5] = system: Aspergillus flavus KCTC 7375
[6] = system: Bacillus megaterium KCTC 1096
[7] = system: Bacillus subtilis KCTC 1918
[8] = system: Candida albicans KCTC 7121
[9] = system: Escherichia coli KCTC 1682
[10] = system: Fusarium oxysporum KCTC 6084
Proteus vulgaris = system: Proteus vulgaris
[11] = system: Pseudomonas aeruginosa KCTC 1637
[12] = system: Staphylococcus aureus KCTC 1621
[13] = system: Trichosporon beigelii KCTC 7251
[14] = system: Candida albicans ATCC 64550
[15] = system: Escherichia coli ATCC 25922
[16] = system: Pseudomonas aeruginosa ATCC 27853
[17] = system: Staphylococcus aureus ATCC 25923
Bacillus megaterium = system: Bacillus megaterium
Escherichia coli O157:H7 = system: Escherichia coli O157:H7
[18] = system: Lysinibacillus sphaericus TISTR 678
[19] = system: Salmonella enterica subsp. enterica serovar Typhi ATCC 5784
[20] = system: Salmonella enterica subsp. enterica serovar Typhi DMST 22842
[21] = system: Salmonella enterica subsp. enterica serovar Typhi
[22] = system: Staphylococcus epidermidis ATCC 12228
[23] = system: Staphylococcus epidermidis
Vibrio cholerae non-O139 = system: Vibrio cholerae non-O139
Vibrio cholerae non-O1 = system: Vibrio cholerae non-O1
[24] = system: Staphylococcus aureus ATCC 25929
[25] = system: Aeromonas veronii biovar sobria BJCP-5
[26] = system: Bacillus subtilis CMCC 63501
[27] = system: Candida albicans ATCC 10231
[28] = system: Enterococcus faecalis ATCC 29212
[29] = system: Salmonella enterica subsp. enterica serovar Enteritidis
[30] = system: Salmonella enterica subsp. enterica serovar Pullorum C79-13
[31] = system: Salmonella enterica subsp. enterica serovar Typhimurium C77-31
[32] = system: Staphylococcus aureus ATCC 29213
[33] = system: Staphylococcus pseudintermedius

MIC (Botrytis cinerea): ≥ 200 µM
MIC (Escherichia coli SBS 363): ≥ 200 µM
MIC (Fusarium oxysporum): ≥ 200 µM
MIC [1]: ≥ 200 µM
SMILES: CC[C@H](C)[C@H](N)C(=O)N[C@@H](CC(C)C)C(=O)N[C@@H](CCC(=O)O)C(=O)N[C@@H](CC(N)=O)C(=O)N[C@@H](CC(C)C)C(=O)N[C@@H](CC(C)C)C(=O)N[C@@H](C)C(=O)N[C@@H](CCCN=C(N)N)C(=O)N[C@@H](CO)C(=O)N[C@H](C(=O)N[C@@H](CC(N)=O)C(=O)N[C@@H](CCC(=O)O)C(=O)N[C@@H](CC(=O)O)C(=O)N[C@@H](CCCN=C(N)N)C(=O)N[C@@H](CCC(=O)O)C(=O)NCC(=O)N[C@@H](CO)C(=O)N[C@H](C(=O)N[C@@H](Cc1ccccc1)C(=O)O)[C@@H](C)CC)[C@@H](C)O [ILENLLARSTNEDREGSIF]

MIC [2]: 28.4 µM (≈ 50 µg/mL)
MIC [3]: ≥ 56.8 µM
MIC [4]: 14.2 µM (≈ 25 µg/mL)
SMILES: CC[C@H](C)[C@H](N)C(=O)N[C@@H](CC(C)C)C(=O)N1CCC[C@H]1C(=O)N[C@@H](Cc1c[nH]c2ccccc12)C(=O)N[C@@H](CCCCN)C(=O)N[C@@H](Cc1c[nH]c2ccccc12)C(=O)N1CCC[C@H]1C(=O)N[C@@H](Cc1c[nH]c2ccccc12)C(=O)N[C@@H](CC(C)C)C(=O)N1CCC[C@H]1C(=O)N[C@@H](CC(C)C)C(=O)N[C@@H](CCCN=C(N)N)C(=O)N[C@@H](CCCN=C(N)N)C(N)=O [ILPWKWPWLPLRR]

MIC [5]: ≥ 50 µM
MIC [6]: 3.12 µM (≈ 6.33 µg/mL)
MIC [7]: 1.56 µM (≈ 3.16 µg/mL)
MIC [8]: ≥ 50 µM
MIC [9]: 4.42 µM (≈ 8.95 µg/mL)
MIC [10]: ≥ 50 µM
MIC (Proteus vulgaris): 1.56 µM (≈ 3.16 µg/mL)
MIC [11]: 6.25 µM (≈ 12.7 µg/mL)
MIC [12]: 3.12 µM (≈ 6.33 µg/mL)
MIC [13]: ≥ 50 µM
SMILES: CC[C@H](C)[C@H](NC(=O)[C@H](CCCCN)NC(=O)[C@H](CCCCN)NC(=O)[C@H](Cc1ccccc1)NC(=O)[C@H](CC(C)C)NC(=O)[C@H](CCCCN)NC(=O)[C@H](Cc1c[nH]c2ccccc12)NC(=O)[C@@H](N)CCCCN)C(=O)N1CCC[C@H]1C(=O)N[C@@H](CCCCN)C(=O)N[C@@H](Cc1ccccc1)C(=O)N[C@@H](CC(C)C)C(=O)N[C@@H](Cc1cnc[nH]1)C(=O)N[C@@H](CC(C)C)C(=O)N[C@@H](C)C(=O)N[C@@H](CCCCN)C(N)=O [KWKLFKKIPKFLHLAK]

MIC [14]: ≥ 100 µM
MIC [15]: 15 µM (≈ 25.9 µg/mL)
MIC [16]: 20 µM (≈ 34.5 µg/mL)
MIC [17]: 2.5 µM (≈ 4.32 µg/mL)
SMILES: CC(C)C[C@H](NC(=O)[C@H](Cc1c[nH]c2ccccc12)NC(=O)[C@@H](N)CCCCN)C(=O)N[C@@H](CCCN=C(N)N)C(=O)N[C@@H](CCCN=C(N)N)C(=O)N[C@H](C(=O)N[C@@H](Cc1c[nH]c2ccccc12)C(=O)N[C@@H](CCCN=C(N)N)C(=O)N[C@@H](Cc1c[nH]c2ccccc12)C(=O)N[C@@H](Cc1c[nH]c2ccccc12)C(=O)N[C@@H](CCCN=C(N)N)C(N)=O)C(C)C [KWLRRVWRWWR]

MIC (Bacillus megaterium): ≥ 64 µM
MIC [15]: > 248 µM
MIC (Escherichia coli O157:H7): ≥ 64 µM
MIC [18]: ≥ 64 µM
MIC [16]: > 248 µM
MIC [19]: ≥ 64 µM
MIC [20]: ≥ 248 µM
MIC [21]: 31.1 µM and ≥ 64 µM
MIC [17]: > 248 µM
MIC [22]: > 248 µM
MIC [23]: 31.1 µM (≈ 25 µg/mL)
SMILES: CC(C)[C@H](NC(=O)CNC(=O)[C@@H](N)CC(N)=O)C(=O)N[C@@H](CCC(N)=O)C(=O)N1CCC[C@H]1C(=O)N[C@@H](CCCCN)C(=O)N[C@@H](Cc1ccc(O)cc1)C(=O)O [NGVQPKY]
MIC (Vibrio cholerae non-O139): ≥ 248 µM
MIC (Vibrio cholerae non-O1): ≥ 248 µM

MIC [15]: 17 µM (≈ 32.2 µg/mL)
MIC [24]: 17 µM (≈ 32.2 µg/mL)
SMILES: CC(C)C[C@H](NC(=O)CNC(=O)[C@H](C)NC(=O)[C@H](CC(C)C)NC(=O)[C@H](CC(C)C)NC(=O)[C@@H](NC(=O)[C@H](CCCCN)NC(=O)[C@H](CC(C)C)NC(=O)[C@H](CC(C)C)NC(=O)[C@H](C)NC(=O)[C@@H]1CCCN1C(=O)[C@H](CC(C)C)NC(=O)[C@H](C)NC(=O)[C@@H](NC(=O)CNC(=O)[C@H](CC(C)C)NC(=O)[C@@H](N)CCCN=C(N)N)[C@@H](C)O)[C@@H](C)O)C(=O)N[C@@H](CC(N)=O)C(=O)NCC(N)=O [RLGTALPALLKTLLAGLNG]

MIC [26]: 8 µM (≈ 37.9 µg/mL)
MIC [27]: 16 µM (≈ 75.8 µg/mL)
MIC [28]: 2 µM (≈ 9.48 µg/mL)
MIC [29]: 4 µM (≈ 19 µg/mL)
MIC [30]: 2.23 µM (≈ 10.6 µg/mL)
MIC [31]: 2.23 µM (≈ 10.6 µg/mL)
MIC [17]: 0.569 µM (≈ 2.7 µg/mL)
MIC [32]: 54 µM and > 27 µM
MIC [22]: 2.23 µM (≈ 10.6 µg/mL)
MIC [33]: ≥ 54 µM
SMILES: CC[C@H](C)[C@H](NC(=O)[C@@H]1CCCN1C(=O)[C@@H](N)CO)C(=O)N[C@@H](Cc1cnc[nH]1)C(=O)N[C@@H](C)C(=O)N[C@H]1CSSC[C@@H]2NC(=O)[C@H](CO)NC(=O)[C@H](CCCCN)NC(=O)[C@H](CC(C)C)NC(=O)CNC(=O)[C@H](CO)NC(=O)CNC(=O)[C@@H]3CSSC[C@H](NC(=O)[C@H](C(C)C)NC(=O)CNC(=O)[C@H](CCCN=C(N)N)NC(=O)[C@H](CCC(N)=O)NC(=O)[C@H](Cc4ccc(O)cc4)NC(=O)[C@H](CCCN=C(N)N)NC1=O)C(=O)N[C@@H]([C@@H](C)CC)C(=O)N1CCC[C@H]1C(=O)NCC(=O)N1CCC[C@H]1C(=O)N[C@@H](CSSC[C@@H](C(=O)N[C@H](C(=O)N[C@@H](CCCN=C(N)N)C(=O)N[C@@H](CC(N)=O)C(=O)N[C@@H](CCCN=C(N)N)C(=O)N[C@@H](Cc1c[nH]c4ccccc14)C(=O)N[C@@H](C)C(=O)O)C(C)C)NC2=O)C(=O)N[C@@H](CCCN=C(N)N)C(=O)N[C@@H](Cc1c[nH]c2ccccc12)C(=O)N1CCC[C@H]1C(=O)N[C@@H](Cc1ccc(O)cc1)C(=O)N[C@@H](Cc1ccc(O)cc1)C(=O)N[C@@H](CCCN=C(N)N)C(=O)N[C@@H](C(C)C)C(=O)NCC(=O)N[C@@H](CO)C(=O)N3 [SPIHACRYQRGVCIPGPCRWPYYRVGSCGSGLKSCCVRNRWA]
MIC [25]: 0.5 µM (≈ 2.37 µg/mL)
